Data from a melting point compilation (Tetko et al.; mined from patent text by program, amines drawn as free bases though some values may be those of a salt).

SMILES	melting point [°C]
CN(C)CCCCN1CCOc2cc3ncc(C#N)c(Nc4ccc(F)c(Cl)c4)c3cc21	105
Fc1cccc(CC[C@H]2CNCCN2)c1	95 to 99
CCOC(=O)c1c(CC)nn2ccc3c(c12)CCO3	110 to 111
CCOC(=O)CCc1cc(OCC(=O)NNC(C)=O)nn1Cc1ccc(Cl)cc1Cl	167 to 170
OC(c1nccn1CCc1ccccc1)C1CCNCC1 (stereo not given)	145
Nc1ccc(S(=O)C2=CCCCC2)cc1[N+](=O)[O-] (stereo not given)	139 to 140
COC(=O)c1cc(-c2ccc(SC)cc2)nn(CC2CC2)c1=O	100 to 102
Clc1cc(Cl)n2ncc(Br)c2n1	73 to 75
O=S(=O)(c1ccc(N2CCCCC2)cc1)N1CCCC1=S	195 to 200
CCCCCCCCCCCCCCOc1ccc(C(=O)N(CC(=O)O)CC(=O)O)cc1OCCCCCCCCCCCCCC	84 to 87
COc1ccc(C2CCOCC2)cc1N	102 to 103
O=C(O)c1ccc(CCCC2SCC(=O)N2CCCC2(O)CCCCC2)cc1 (stereo not given)	118 to 121
CCSc1cc2c(cc1SCC)C(=O)c1c(c(Cl)c3cc(SCC)c(SCC)cc3c1Cl)C2=O	> 260
CC1(C)Oc2ccc(C#Cc3ccccc3)cc2[C@@H](N)[C@@H]1O (relative stereo)	162 to 164
CCCOc1ccccc1C1C(C(=O)OCC)=C(CCC)Nc2n[nH]cc21 (stereo not given)	205
CC1=NS(=O)(=O)N(C)C(Oc2cccnc2)=N1	137 to 138
CCOC1=NS(=O)(=O)N=C1c1ccccc1	204 to 206
O=C(O)C1CNc2ccccc2CN1 (stereo not given)	183 to 185

SMILES	melting point [°C]
CC(=O)c1ccc2c(c1)C(c1ccccc1F)=NC(C)C(=O)N2C (stereo not given)	65
O=C1CC=CC(C(=O)O)C1 (stereo not given)	98 to 101
Cc1cccc(C)c1N(C(=O)CN)C(=O)CCl	135 to 137
CC1NC(=O)NN=C1c1ccc(N2CCCC2=O)cc1 (stereo not given)	278 to 280
CC/C=C\CCCCCCCCCCOc1ccc(C(C)=O)o1	36 to 38
CC1=C(C(=O)OCC[Si](C)(C)C)C(c2cccc([N+](=O)[O-])c2)C(C(=O)OCC[Si](C)(C)C)=C(C)N1	120
N#Cc1ccc(Sc2cccc3cnccc23)c(Cl)c1	126 to 128
O=C(NC1CCN(CCCOc2ccc3c4c(c(=O)oc3c2)CCC4)CC1)c1cccnc1	199 to 200
Cc1cc(C(=O)NCO)ncc1C(c1c(F)ccc(F)c1F)S(=O)(=O)CCC(C)(F)F (stereo not given)	161 to 162
CCn1cc(C(=O)O)c(=O)c2cc(Cl)c(N(C)C)cc21	210
CCOc1cnc2nc(S(=O)(=O)Cl)nn2c1	134 to 137
O=Cc1c(-c2ccccc2Cl)ccc2c1OCO2	84 to 86
CC(=O)c1c(C)nc(C)nc1NCc1ccc(Br)cc1	78 to 80
CSc1nc(Cl)c(-c2c(F)cc(F)cc2F)c(NC(C)C)n1	112 to 116
CCOC(=O)c1cnc(-c2cc3cccc(N)c3n2COC)s1	188 to 190
CCn1c(=O)[nH]c2c3cccnc3ccc21	258 to 259
Cc1c(SCCCSc2ccc3ncc([N+](=O)[O-])n3n2)ccnc1CCl	155 to 156

Now from value to molecule:

melting point [°C]	SMILES
132 to 134	CCOC(=O)Cc1ccc(NC(=O)C(COc2ccc(Cl)cc2)NS(=O)(=O)c2ccc(F)cc2)cc1 (racemic)
337 to 340	Nc1nc(N)nc(Cc2nc3ccccc3n2-c2ccccc2)n1
132 to 134	O=C1N(Cc2ccccn2)c2ccccc2C12COc1ccc3c(c12)OCCO3 (stereo not given)
142 to 143	O=C(c1ccc(F)cc1)c1ccc(C(c2ccc(C(=O)c3ccc(F)cc3)cc2)(C(F)(F)F)C(F)(F)F)cc1
165 to 167	CC(C)(C)Sc1c(CC(C)(C)C(=O)O)n(Cc2ccc(Cl)cc2)c2cc(OCc3ccc4ccccc4n3)ccc12
275 to 278	CC(=O)c1ccc2c(c1)ncn2-c1cccc(-c2cnc(N)nc2)c1
130 to 133	COC(=O)C1=Cc2cc(OCc3ccc(Cl)cc3)ccc2S(=O)(=O)CC1
120	CCN(CCCCNC(=O)c1ccc2ccccc2c1)C1CCc2ncsc2C1 (stereo not given)
216 to 218	CCOC(=O)c1nn(-c2ccccc2)c(=O)c2c1c1ccc(Cl)cc1n2C
263 to 265	COc1cc(C(=O)NC(C)(C)C)ccc1S(=O)(=O)N1C(=O)C(N)(c2ccccc2Cl)c2cc(Cl)ccc21 (stereo not given)
104 to 106	Cc1oc(-c2ccccc2)nc1CCSc1ccc(OC(C)(C)C(=O)O)cc1
87 to 94	CC1C(=O)N(CC(=O)CCc2ccccc2)C1S(=O)Cc1ccccc1 (stereo not given)
158 to 160	Cc1cc(C)c(Nc2nc(C)ccc2S(=O)(=O)c2ccc(OCc3ccccc3)cc2)c(C)c1
110 to 111	O=c1c2ccc(F)cc2ncn1Cc1ccccc1
124 to 130	COc1cc2ncc(C#N)c(Nc3ccc(Sc4ccccc4)c(Cl)c3)c2cc1OC
78 to 80	CCOC(=O)Cc1cccc(Sc2ccccc2Cl)c1[N+](=O)[O-]
227 to 230	COc1cc2c(cc1-c1ccc(F)cc1)C(=CNc1ccc(CN3CCCCC3)cc1)C(=O)NC2=O
74 to 78	CC(C)(C)OC(=O)N=C(N)N(CCc1ccc(OCCC2Oc3ccccc3N(Cc3cccc(Cl)c3)C2=O)cc1)C(=O)OC(C)(C)C (stereo not given)

melting point [°C]	SMILES
172 to 175	Cc1ccc(C(=O)NC(C)NC(=S)Nc2cccc([N+](=O)[O-])c2)cc1 (stereo not given)
254 to 260	Oc1cc(Cl)nnc1-c1ccc(F)cc1
61 to 67	Cc1ccc(-c2ccc(C)cc2C=CC#Cc2ccc(C(=O)O)cc2)cc1
136 to 138	CN(C)C=Nc1nc(OC(=O)c2ccccc2)ncc1F
231 to 232	CC(C)(C)c1ncc(Nc2ncc(-c3ccc4ccncc4c3)c3ccccc23)cn1
187	CC(=O)NC(C(=O)O)C(c1ccc(F)cc1)c1ccc(F)cc1 (stereo not given)
67 to 68	CCC(C)c1ccccc1SC1=C(O)CC(CCc2ccccc2)(c2ccccc2)OC1=O (stereo not given)
183 to 185	CC(C)C(=O)NCC(=NNC(N)=S)c1ccccc1
177 to 178	COc1ccc(C(=O)c2sc(Nc3ccccc3)nc2NC(=O)Nc2ccc(F)cc2)cc1
155 to 165	CCCC(=O)NS(=O)(=O)c1ccc(C(=O)C=Cc2cc(-c3cc4ccccc4[nH]3)c(OC)cc2OC)cc1
129 to 130	Oc1ccc(-c2nnc(CSCCCCOc3ccccc3)o2)cc1
250 to 253	COc1ccc(C=C2SC(=S)N(CC(=O)O)C2=O)cc1
184 to 185	Cc1cc2c(s1)S(=O)(=O)N(C)C(=O)C2C(=O)Nc1ccccc1 (stereo not given)
115 to 120	CSCC[C@H](NC(=O)c1cc(NC(Cn2ccnc2)c2ccc(F)cc2)ccc1CCc1ccc(F)cc1)C(=O)O (stereo not given in full)
70 to 71	COc1ccc(Br)cc1OCc1ccccc1
150 to 151	c1ccc(NC2CCCN2Cc2c[nH]c3ccccc23)cc1 (stereo not given)
124 to 126	Cc1ccc(S(=O)(=O)NCCCCOc2ccc(-n3cccc3)cc2)cc1
